Converted amounts (≈) assume the structure as drawn.
Assay: Compound solubility in water
Format: physicochemical

| SMILES | solubility |
| --- | --- |
| COCCOc1ccc(-c2cc(C)n3ncc(C(=O)NC(C)C(F)(F)F)c3n2)cc1F (centres unmarked) [III-298] | 1.5 µg/mL (≈ 3.41 µM) |
| Cc1cc(-c2ccc(N3CCOCC3)c(F)c2)nc2c(C(=O)NC(C)C(F)(F)F)cnn12 (centres unmarked) [III-299] | 0.5 µg/mL (≈ 1.11 µM) |
| Cc1cc(-c2sccc2C#N)nc2c(C(=O)NC(C)C(F)(F)F)cnn12 (centres unmarked) [III-300] | 1.4 µg/mL (≈ 3.69 µM) |
| Cc1cc(-c2sccc2C#N)nc2c(C(=O)N[C@@H](C)C3CC3)cnn12 [III-301] | 1.1 µg/mL (≈ 3.13 µM) |
| Cc1cc(-c2sccc2C#N)nc2c(C(=O)N[C@H](C)C3CC3)cnn12 [III-302] | 0.5 µg/mL (≈ 1.42 µM) |
| Cc1cc(-c2ccc3c(c2)ncn3C)nc2c(C(=O)NC(C3CC3)C(F)(F)F)cnn12 (centres unmarked) [III-303] | 3.2 µg/mL (≈ 7.47 µM) |
| Cc1cc(-c2ccc3ncn(C)c3c2)nc2c(C(=O)NC(C3CC3)C(F)(F)F)cnn12 (centres unmarked) [III-304] | 0.4 µg/mL (≈ 0.934 µM) |
| Cc1cc(-c2ccc3nc[nH]c3c2)nc2c(C(=O)NC(C3CC3)C(F)(F)F)cnn12 (centres unmarked) [III-307] | 0.3 µg/mL (≈ 0.724 µM) |
| Cc1cc(-c2cccc3nc[nH]c23)nc2c(C(=O)NC(C3CC3)C(F)(F)F)cnn12 (centres unmarked) [III-308] | 4.6 µg/mL (≈ 11.1 µM) |
| Cc1cc(-c2cccc3ncn(C)c23)nc2c(C(=O)NC(C3CC3)C(F)(F)F)cnn12 (centres unmarked) [III-309] | 31.4 µg/mL (≈ 73.3 µM) |
| Cc1cc(-c2cccc3c2ncn3C)nc2c(C(=O)NC(C3CC3)C(F)(F)F)cnn12 (centres unmarked) [III-310] | 0.3 µg/mL (≈ 0.7 µM) |
| Cc1cc(-c2nc3ccccc3[nH]2)nc2c(C(=O)NC(C3CC3)C(F)(F)F)cnn12 (centres unmarked) [III-311] | 0.6 µg/mL (≈ 1.45 µM) |
| Cc1cc(-c2nc3ccccc3n2C)nc2c(C(=O)NC(C3CC3)C(F)(F)F)cnn12 (centres unmarked) [III-312] | 0.3 µg/mL (≈ 0.7 µM) |
| Cc1cc(N2CC(C(C)C)OC2=O)nc2c(C(=O)NC(c3ccccc3)C(F)(F)F)cnn12 (centres unmarked) [III-313] | 0.1 µg/mL (≈ 0.217 µM) |
| Cc1cc(N2C[C@H](c3ccccc3)OC2=O)nc2c(C(=O)NC(C3CC3)C(F)(F)F)cnn12 (some centres unmarked) [III-314] | 0.2 µg/mL (≈ 0.435 µM) |
| Cc1cc(N2C[C@@H](c3ccccc3)OC2=O)nc2c(C(=O)NC(C3CC3)C(F)(F)F)cnn12 (some centres unmarked) [III-315] | 0.1 µg/mL (≈ 0.218 µM) |
| Cc1cc(N2CC(C(C)C)OC2=O)nc2c(C(=O)NC(C3CC3)C(F)(F)F)cnn12 (centres unmarked) [III-316] | 1.3 µg/mL (≈ 3.06 µM) |
| Cc1cc(N2CC(C)(C)NC2=O)nc2c(C(=O)NC(C3CC3)C(F)(F)F)cnn12 (centres unmarked) [III-319] | 1.3 µg/mL (≈ 3.17 µM) |
| Cc1nc2cc(-c3cc(C)n4ncc(C(=O)N[C@@H](C)C5CC5)c4n3)ccc2o1 [III-321] | 1.9 µg/mL (≈ 5.06 µM) |

| SMILES | solubility |
| --- | --- |
| Cc1cc(-c2ccnnc2)nc2c(C(=O)NC(C3CC3)C(F)(F)F)cnn12 (centres unmarked) [III-325] | 14.6 µg/mL (≈ 38.8 µM) |
| Cc1cc(N2CCN(C(C)C)C2=O)nc2c(C(=O)N[C@@H](C3CC3)C(F)(F)F)cnn12 [III-326] | 21 µg/mL (≈ 49.5 µM) |
| Cc1cc(N2CCN(C(C)C)C2=O)nc2c(C(=O)N[C@H](C3CC3)C(F)(F)F)cnn12 [III-327] | 32.8 µg/mL (≈ 77.3 µM) |
| Cc1cc(N2CCC(C)(C)C2=O)nc2c(C(=O)NC(C3CC3)C(F)(F)F)cnn12 (centres unmarked) [III-328] | 3.3 µg/mL (≈ 8.06 µM) |
| Cc1nc(-c2cc(C)n3ncc(C(=O)N[C@H](C4CC4)C(F)(F)F)c3n2)oc1C [III-331] | 1 µg/mL (≈ 2.54 µM) |
| Cc1cc(-c2ccc(F)o2)nc2c(C(=O)N[C@H](C)C(F)(F)F)cnn12 [III-334] | 2 µg/mL (≈ 5.61 µM) |
| Cc1cc(-c2cc(C)n3ncc(C(=O)N[C@H](C)C(F)(F)F)c3n2)co1 [III-338] | 0.2 µg/mL (≈ 0.568 µM) |
| Cc1cc(-c2cc(C)n3ncc(C(=O)N[C@H](C4CC4)C(F)(F)F)c3n2)on1 [III-343] | 1.5 µg/mL (≈ 3.95 µM) |
| Cc1nc(-c2cc(C)n3ncc(C(=O)N[C@H](C)C(F)(F)F)c3n2)oc1C [III-345] | 1 µg/mL (≈ 2.72 µM) |
| Cc1cc(-c2cc(C)n3ncc(C(=O)N[C@@H](C)C4CC4)c3n2)sn1 [III-346] | 18.8 µg/mL (≈ 55.1 µM) |
| Cc1cc(-c2cc(F)ccc2C#N)nc2c(C(=O)N[C@H](C)C(F)(F)F)cnn12 [III-349] | 0.1 µg/mL (≈ 0.256 µM) |
| Cc1cc(-c2cc(F)ccc2C#N)nc2c(C(=O)N[C@@H](C)C(F)(F)F)cnn12 [III-350] | 0.3 µg/mL (≈ 0.767 µM) |
| Cc1cc(-c2cnccc2C(F)(F)F)nc2c(C(=O)N[C@H](C3CC3)C(F)(F)F)cnn12 [III-353] | 8.3 µg/mL (≈ 18.7 µM) |
| Cc1cc(-c2cnccc2C(F)(F)F)nc2c(C(=O)N[C@@H](C3CC3)C(F)(F)F)cnn12 [III-354] | 13.5 µg/mL (≈ 30.4 µM) |
| Cc1cc(-c2cccnc2C(F)(F)F)nc2c(C(=O)N[C@H](C3CC3)C(F)(F)F)cnn12 [III-355] | 0.1 µg/mL (≈ 0.226 µM) |
| Cc1cc(-c2ccc(F)cc2)nc2c(C(=O)N[C@H](C)C(F)(F)F)cnn12 [III-359] | 0.7 µg/mL (≈ 1.91 µM) |
| Cc1cc(-c2ccc(F)cc2)nc2c(C(=O)N[C@@H](C)C(F)(F)F)cnn12 [III-360] | 0.7 µg/mL (≈ 1.91 µM) |
| Cc1cc(-c2cccc(F)c2)nc2c(C(=O)N[C@H](C)C(F)(F)F)cnn12 [III-361] | 0.7 µg/mL (≈ 1.91 µM) |

Other lines, results leading:

| solubility | SMILES |
| --- | --- |
| 0.6 µg/mL (≈ 1.64 µM) | Cc1cc(-c2cccc(F)c2)nc2c(C(=O)N[C@@H](C)C(F)(F)F)cnn12 [III-362] |
| 1.7 µg/mL (≈ 4.25 µM) | Cc1cc(-c2cncc(C#N)c2)nc2c(C(=O)N[C@H](C3CC3)C(F)(F)F)cnn12 [III-363] |
| 1.8 µg/mL (≈ 4.5 µM) | Cc1cc(-c2cccnc2C#N)nc2c(C(=O)N[C@H](C3CC3)C(F)(F)F)cnn12 [III-365] |
| 1.1 µg/mL (≈ 2.75 µM) | Cc1cc(-c2cccnc2C#N)nc2c(C(=O)N[C@@H](C3CC3)C(F)(F)F)cnn12 [III-366] |
| 0.4 µg/mL (≈ 0.999 µM) | Cc1cc(-c2ccc(C#N)nc2)nc2c(C(=O)N[C@H](C3CC3)C(F)(F)F)cnn12 [III-367] |
| 1.7 µg/mL (≈ 4.17 µM) | Cc1ccc(-c2cc(C)n3ncc(C(=O)N[C@H](C4CC4)C(F)(F)F)c3n2)c(F)n1 [III-372] |
| 1.1 µg/mL (≈ 2.7 µM) | Cc1cnc(F)c(-c2cc(C)n3ncc(C(=O)N[C@H](C4CC4)C(F)(F)F)c3n2)c1 [III-374] |
| 0.3 µg/mL (≈ 0.736 µM) | Cc1ncc(-c2cc(C)n3ncc(C(=O)N[C@H](C4CC4)C(F)(F)F)c3n2)cc1F [III-380] |
| 0.2 µg/mL (≈ 0.501 µM) | C#Cc1cncc(-c2cc(C)n3ncc(C(=O)N[C@@H](C4CC4)C(F)(F)F)c3n2)c1 [III-383] |
| 0.1 µg/mL (≈ 0.23 µM) | COCOc1cccc(-c2cc(C)n3ncc(C(=O)N[C@@H](C4CC4)C(F)(F)F)c3n2)n1 [III-384] |
| 0.3 µg/mL (≈ 0.735 µM) | Cc1cc(-c2nnc(C(C)C)o2)nc2c(C(=O)N[C@H](C3CC3)C(F)(F)F)cnn12 [III-391] |
| 0.4 µg/mL (≈ 0.979 µM) | Cc1cc(-c2nnc(C(C)C)o2)nc2c(C(=O)N[C@@H](C3CC3)C(F)(F)F)cnn12 [III-392] |
| 0.7 µg/mL (≈ 1.71 µM) | Cc1cc(-c2noc(C(C)C)n2)nc2c(C(=O)N[C@@H](C3CC3)C(F)(F)F)cnn12 [III-394] |
| 0.3 µg/mL (≈ 0.826 µM) | Cc1cc(-c2cc(F)ccc2C#N)nc2c(C(=O)N[C@@H](C)C3CC3)cnn12 [III-396] |
| 0.2 µg/mL (≈ 0.55 µM) | Cc1cc(-c2cccc(F)c2C#N)nc2c(C(=O)N[C@@H](C)C3CC3)cnn12 [III-398] |
| 0.1 µg/mL (≈ 0.256 µM) | Cc1cc(-c2cccc(F)c2C#N)nc2c(C(=O)N[C@@H](C)C(F)(F)F)cnn12 [III-399] |
| 21.4 µg/mL (≈ 64.8 µM) | CO[C@H]1CC[C@H]([C@@H](C)NC(=O)c2cnn3c(C)cc(C)nc23)CC1 [III-403] |
| 15.1 µg/mL (≈ 45.7 µM) | CO[C@H]1CC[C@@H]([C@@H](C)NC(=O)c2cnn3c(C)cc(C)nc23)CC1 [III-404] |
| 1.5 µg/mL (≈ 3.82 µM) | COc1cccc(-c2cc(C)n3ncc(C(=O)NC(C)(C)C(F)(F)F)c3n2)c1 [III-405] |
| 0.8 µg/mL (≈ 2.02 µM) | Cc1cc(-c2cccc(Cl)c2)nc2c(C(=O)NC(C)(C)C(F)(F)F)cnn12 [III-406] |
| 0.09 µg/mL (≈ 0.238 µM) | CCc1cc(-c2ccccn2)nc2c(C(=O)NC(C)(C)C(F)(F)F)cnn12 [III-407] |
| 0.4 µg/mL (≈ 1.1 µM) | Cc1cc(-c2ccccn2)nc2c(C(=O)NC(C)(C)C(F)(F)F)cnn12 [III-408] |
